Assays:
[1] = AUC (0 to infinity) in monkey plasma at 10 mg/kg, po measured upto 24 hrs by LC-MS/MS analysis; assay type: ADME, organism-based, Macaca fascicularis; set-up: time < 24 hrs, dose 10 mg/kg, route po; details: cynomolgus monkey
[2] = Cmax in monkey plasma at 10 mg/kg, po measured upto 24 hrs by LC-MS/MS analysis; assay type: ADME, organism-based, Macaca fascicularis; set-up: time < 24 hrs, dose 10 mg/kg, route po; details: cynomolgus monkey
[3] = Toxicity against CB.17 SCID mouse xenografted with human TMD8 cells assessed as effect on lung at 100 mg/kg/day, po for 21 consecutive days by H and E staining method; assay type: organism-based; details: in vivo, 504 h, time 21 day
[4] = AUC (0 to infinity) in monkey plasma at 1 mg/kg, iv measured upto 24 hrs by LC-MS/MS analysis; assay type: ADME, organism-based, Macaca fascicularis; set-up: time < 24 hrs, dose 1 mg/kg, route iv; details: cynomolgus monkey
[5] = AUC (0 to infinity) in ICR mouse at 2 mg/kg, iv measured upto 24 hrs by LC-MS/MS analysis; assay type: ADME, organism-based; set-up: time < 24 hrs, dose 2 mg/kg, route iv; details: in vivo
[6] = Half life in dog plasma at 1 mg/kg, iv measured upto 24 hrs by LC-MS/MS analysis; assay type: ADME, organism-based, Canis lupus familiaris
[7] = AUC (0 to infinity) in ICR mouse at 100 mg/kg, po measured upto 24 hrs by LC-MS/MS analysis; assay type: ADME, organism-based; set-up: dose 100 mg/kg, time < 24 hrs, route po; details: in vivo
[8] = AUC (0 to infinity) in ICR mouse at 10 mg/kg, po measured upto 24 hrs by LC-MS/MS analysis; assay type: ADME, organism-based; set-up: time < 24 hrs, dose 10 mg/kg, route po; details: in vivo
[9] = MRT in monkey plasma at 1 mg/kg, iv measured upto 24 hrs by LC-MS/MS analysis; assay type: ADME, organism-based, Macaca fascicularis; details: cynomolgus monkey
[10] = Clearance in dog plasma at 1 mg/kg, iv measured upto 24 hrs by LC-MS/MS analysis; assay type: ADME, organism-based, Canis lupus familiaris; details: in vivo
[11] = Volume of distribution at steady state in dog plasma at 1 mg/kg, iv measured upto 24 hrs by LC-MS/MS analysis; assay type: ADME, organism-based, Canis lupus familiaris; details: read-out: Vdss
[12] = MRT in dog plasma at 1 mg/kg, iv measured upto 24 hrs by LC-MS/MS analysis; assay type: ADME, organism-based, Canis lupus familiaris
[13] = Toxicity against CB.17 SCID mouse xenografted with human TMD8 cells assessed as effect on liver at 100 mg/kg/day, po for 21 consecutive days by H and E staining method; assay type: organism-based; details: in vivo, 504 h, time 21 day
[14] = Half life in dog plasma at 10 mg/kg, po measured upto 24 hrs by LC-MS/MS analysis; assay type: ADME, organism-based, Canis lupus familiaris
[15] = Toxicity against CB.17 SCID mouse xenografted with human TMD8 cells assessed as body weight loss at 50 to 100 mg/kg/day, po for 21 consecutive days; assay type: organism-based; details: in vivo, 504 h, dose 50-100 mg/kg/day, time 21 day
[16] = MRT in monkey plasma at 10 mg/kg, po measured upto 24 hrs by LC-MS/MS analysis; assay type: ADME, organism-based, Macaca fascicularis; details: cynomolgus monkey
[17] = AUC (0 to infinity) in dog plasma at 1 mg/kg, iv measured upto 24 hrs by LC-MS/MS analysis; assay type: ADME, organism-based, Canis lupus familiaris; set-up: dose 1 mg/kg, time < 24 hrs, route iv
[18] = Cmax in dog plasma at 10 mg/kg, po measured upto 24 hrs by LC-MS/MS analysis; assay type: ADME, organism-based, Canis lupus familiaris; set-up: time < 24 hrs, dose 10 mg/kg, route po
[19] = MRT in ICR mouse at 2 mg/kg, iv measured upto 24 hrs by LC-MS/MS analysis; assay type: ADME, organism-based; details: in vivo
[20] = Aqueous solubility of the compound; assay type: physicochemical; details: aqueous medium
[21] = Oral bioavailability in monkey plasma at 10 mg/kg measured upto 24 hrs by LC-MS/MS analysis; assay type: ADME, organism-based, Macaca fascicularis; details: cynomolgus monkey
[22] = Half life in monkey plasma at 1 mg/kg, iv measured upto 24 hrs by LC-MS/MS analysis; assay type: ADME, organism-based, Macaca fascicularis; details: cynomolgus monkey
[23] = Toxicity against CB.17 SCID mouse xenografted with human TMD8 cells assessed as effect on heart at 100 mg/kg/day, po for 21 consecutive days by H and E staining method; assay type: organism-based; details: in vivo, 504 h, time 21 day
[24] = MRT in ICR mouse at 10 mg/kg, po measured upto 24 hrs by LC-MS/MS analysis; assay type: ADME, organism-based; details: in vivo
[25] = Clearance in monkey plasma at 1 mg/kg, iv measured upto 24 hrs by LC-MS/MS analysis; assay type: ADME, organism-based, Macaca fascicularis; details: cynomolgus monkey, in vivo
[26] = Oral bioavailability in dog plasma at 10 mg/kg measured upto 24 hrs by LC-MS/MS analysis; assay type: ADME, organism-based, Canis lupus familiaris
[27] = Half life in ICR mouse at 10 mg/kg, po measured upto 24 hrs by LC-MS/MS analysis; assay type: ADME, organism-based; details: in vivo
[28] = Toxicity against CB.17 SCID mouse xenografted with human TMD8 cells assessed as effect on kidney at 100 mg/kg/day, po for 21 consecutive days by H and E staining method; assay type: organism-based; details: in vivo, 504 h, time 21 day
[29] = MRT in ICR mouse at 100 mg/kg, po measured upto 24 hrs by LC-MS/MS analysis; assay type: ADME, organism-based; details: in vivo
[30] = Volume of distribution at steady state in monkey plasma at 1 mg/kg, iv measured upto 24 hrs by LC-MS/MS analysis; assay type: ADME, organism-based, Macaca fascicularis; details: cynomolgus monkey, read-out: Vdss
[31] = Cmax in ICR mouse at 10 mg/kg, po measured upto 24 hrs by LC-MS/MS analysis; assay type: ADME, organism-based; set-up: dose 10 mg/kg, time < 24 hrs, route po; details: in vivo
[32] = Half life in ICR mouse at 100 mg/kg, po measured upto 24 hrs by LC-MS/MS analysis; assay type: ADME, organism-based; details: in vivo
[33] = Half life in ICR mouse at 2 mg/kg, iv measured upto 24 hrs by LC-MS/MS analysis; assay type: ADME, organism-based; details: in vivo
[34] = MRT in dog plasma at 10 mg/kg, po measured upto 24 hrs by LC-MS/MS analysis; assay type: ADME, organism-based, Canis lupus familiaris
[35] = Half life in monkey plasma at 10 mg/kg, po measured upto 24 hrs by LC-MS/MS analysis; assay type: ADME, organism-based, Macaca fascicularis; details: cynomolgus monkey
[36] = Cmax in ICR mouse at 100 mg/kg, po measured upto 24 hrs by LC-MS/MS analysis; assay type: ADME, organism-based; set-up: time < 24 hrs, dose 100 mg/kg, route po; details: in vivo
[37] = Toxicity against CB.17 SCID mouse xenografted with human TMD8 cells assessed as effect on spleen at 100 mg/kg/day, po for 21 consecutive days by H and E staining method; assay type: organism-based; details: in vivo, 504 h, time 21 day
[38] = Oral bioavailability in ICR mouse at 100 mg/kg measured upto 24 hrs by LC-MS/MS analysis; assay type: ADME, organism-based; details: in vivo
[39] = Oral bioavailability in ICR mouse at 10 mg/kg measured upto 24 hrs by LC-MS/MS analysis; assay type: ADME, organism-based; details: in vivo
[40] = Clearance in ICR mouse at 2 mg/kg, iv measured upto 24 hrs by LC-MS/MS analysis; assay type: ADME, organism-based; details: in vivo
[41] = AUC (0 to infinity) in dog plasma at 10 mg/kg, po measured upto 24 hrs by LC-MS/MS analysis; assay type: ADME, organism-based, Canis lupus familiaris; set-up: time < 24 hrs, dose 10 mg/kg, route po
TMD8 = experiment: In vivo antitumor activity against TMD8 cells xenografted in CB.17 SCID mouse assessed as tumor growth inhibition at 100 mg/kg/day, po for 21 consecutive days measured on day 21 by Vernier caliper relative to control; assay type: functional, Homo sapiens; details: TMD8, 504 h, time 21 day, read-out: TGI

## Cl.Nc1ccccc1NC(=O)c1ccc(CN2CCC/C(=C\c3ccccn3)C2=O)cc1
[1]
  AUC(0-inf): 53200 ng·h/mL
[2]
  Cmax: 8520 ng/mL
[3]
  Activity: Non-Toxic
[4]
  AUC(0-inf): 15700 ng·h/mL
[5]
  AUC(0-inf): 1250 ng·h/mL
[6]
  half-life: 1.65 h
[7]
  AUC(0-inf): 57200 ng·h/mL
[8]
  AUC(0-inf): 2670 ng·h/mL
[9]
  MRT: 3.41 h
[10]
  clearance: 6.72 mL/min/kg
[11]
  Vd: 0.55 L/kg
[12]
  MRT: 2.26 h
[13]
  Activity: Non-Toxic
[14]
  half-life: 1.51 h
[15]
  Activity: Non-Toxic
[16]
  MRT: 8.28 h
[17]
  AUC(0-inf): 2550 ng·h/mL
[18]
  Cmax: 4740 ng/mL
[19]
  MRT: 0.402 h
[20]
  solubility: > 100 mg/mL
[21]
  bioavailability: 27.6%
[22]
  half-life: 4.31 h
[23]
  Activity: Non-Toxic
[24]
  MRT: 0.919 h
[25]
  clearance: 1.35 mL/min/kg
[26]
  bioavailability: 58.9%
[27]
  half-life: 1.31 h
[28]
  Activity: Non-Toxic
[29]
  MRT: 0.897 h
[30]
  Vd: 0.34 L/kg
[31]
  Cmax: 3960 ng/mL
[32]
  half-life: 1.63 h
[33]
  half-life: 0.427 h
[34]
  MRT: 2.71 h
[35]
  half-life: 9.14 h
[36]
  Cmax: 58300 ng/mL
[37]
  Activity: Non-Toxic
[38]
  bioavailability: 91.8%
[39]
  bioavailability: 45.6%
[40]
  clearance: 27.2 mL/min/kg
[41]
  AUC(0-inf): 15100 ng·h/mL
TMD8
  inhibition in vivo at 100 mg/kg/day: 77%

From ChEMBL document CHEMBL5154672, “Design and synthesis of HDAC inhibitors to enhance the therapeutic effect of diffuse large B-cell lymphoma by improving metabolic stability and pharmacokinetic characteristics” (Eur J Med Chem, 2022)
